Numbers after ± are expanded uncertainties.
Details: Crystal; visual observation

Normal melting temperature [°C] | Structure (SMILES)
149 ± 1 | Cc1cc(O)c2c(=O)c3ccccc3sc2c1 [1-hydroxy3-methylthioxanthone]
240 ± 4 | Cc1cc(O)c2c(=O)c3ccccc3sc2c1O [1,4-dihydroxy-3-methylthioxanthone]
119 ± 1 | O=c1c2ccccc2sc2cccc(O)c12 [1-hydroxythioxanthone]
209 ± 2 | O=c1c2ccccc2sc2ccccc12 [thioxanthone]
